In BindingDB's records for doi:10.1021/bi400413c (Stony Brook University, 2013):

Target: T1, Enoyl-[acyl-carrier-protein] reductase [NADPH] FabI (Staphylococcus aureus (strain MRSA252), UniProt Q6GI75)
T1 sequence (Q6GI75 whole entry): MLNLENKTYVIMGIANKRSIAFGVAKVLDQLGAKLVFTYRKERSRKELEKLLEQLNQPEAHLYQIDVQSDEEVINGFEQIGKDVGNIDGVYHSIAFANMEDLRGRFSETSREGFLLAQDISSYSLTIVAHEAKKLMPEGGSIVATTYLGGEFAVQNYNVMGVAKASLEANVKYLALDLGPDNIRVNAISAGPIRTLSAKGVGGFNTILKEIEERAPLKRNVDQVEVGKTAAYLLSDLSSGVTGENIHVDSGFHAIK
Assay: Thermal Shift Assay
Settings: pH 7.5
Experimental: ThermoFluor experiments were carried out in 96-well plates (Concord) using the CFX96 RealTime PCR Detection system and C1000 Thermal Cycler (BioRad).

Ki | SMILES
0.12 nM | CCCCCCc1ccc(Oc2ccccc2N)c(O)c1
0.82 nM | CCCCCCCCc1ccc(Oc2ccccc2)c(O)c1 [5-Octyl-2-phenoxy-phenol]
0.06 nM | Oc1cc(Br)ccc1Oc1ccccc1 [5-bromo-2-phenoxylphenol]
0.07 nM | CCCc1ccc(Oc2ccccc2)c(O)c1 [PT02]
1.42 nM | Oc1cc(F)ccc1Oc1ccccc1 [PT55]
0.11 nM | C=CCc1ccc(Oc2ccccc2)c(O)c1 [PT68]
0.1 nM | Oc1cc(Cc2ccccc2)ccc1Oc1ccccc1 [PT89]
0.5 nM | Cc1ccccc1Oc1ccc(CCc2ccccc2)cc1O [PT162]
0.05 nM | N#Cc1ccccc1Oc1ccc(Br)cc1O [PT443]
1.01 nM | N#Cc1ccccc1Oc1ccc(F)cc1O [PT446]

SMILES | Ki
Oc1ccccc1Oc1ccccc1 [2-phenoxylphenol] | 18.9 nM
CCCCCCc1ccc(Oc2ccccc2)c(O)c1 [5-hexyl-2-phenoxyphenol] | 0.01 nM
CCCCCc1ccc(Oc2ccccc2)c(O)c1 [5-pentyl-2-phenoxylphenol] | 0.04 nM
Cc1ccc(Oc2ccccc2)c(O)c1 [PT53] | 0.38 nM
